Experimental data from US7696246B2 (Ligand Pharmaceuticals Incorporated, priority 1999, dated 2010).

What was measured:
human AR [1] = target: T1, human AR (Homo sapiens, UniProt P10275); assay: Co-transfection assay, AR agonist activity (CV-1 cells, MTV-LUC reporter); format: cell-based; conditions: CV-1 cells; for EC50: agonist potency EC50; for AR Agonist CV-1 Cells Efficacy (%): percent maximal response relative to reference agonist DHT
T1 sequence (P10275 1-920): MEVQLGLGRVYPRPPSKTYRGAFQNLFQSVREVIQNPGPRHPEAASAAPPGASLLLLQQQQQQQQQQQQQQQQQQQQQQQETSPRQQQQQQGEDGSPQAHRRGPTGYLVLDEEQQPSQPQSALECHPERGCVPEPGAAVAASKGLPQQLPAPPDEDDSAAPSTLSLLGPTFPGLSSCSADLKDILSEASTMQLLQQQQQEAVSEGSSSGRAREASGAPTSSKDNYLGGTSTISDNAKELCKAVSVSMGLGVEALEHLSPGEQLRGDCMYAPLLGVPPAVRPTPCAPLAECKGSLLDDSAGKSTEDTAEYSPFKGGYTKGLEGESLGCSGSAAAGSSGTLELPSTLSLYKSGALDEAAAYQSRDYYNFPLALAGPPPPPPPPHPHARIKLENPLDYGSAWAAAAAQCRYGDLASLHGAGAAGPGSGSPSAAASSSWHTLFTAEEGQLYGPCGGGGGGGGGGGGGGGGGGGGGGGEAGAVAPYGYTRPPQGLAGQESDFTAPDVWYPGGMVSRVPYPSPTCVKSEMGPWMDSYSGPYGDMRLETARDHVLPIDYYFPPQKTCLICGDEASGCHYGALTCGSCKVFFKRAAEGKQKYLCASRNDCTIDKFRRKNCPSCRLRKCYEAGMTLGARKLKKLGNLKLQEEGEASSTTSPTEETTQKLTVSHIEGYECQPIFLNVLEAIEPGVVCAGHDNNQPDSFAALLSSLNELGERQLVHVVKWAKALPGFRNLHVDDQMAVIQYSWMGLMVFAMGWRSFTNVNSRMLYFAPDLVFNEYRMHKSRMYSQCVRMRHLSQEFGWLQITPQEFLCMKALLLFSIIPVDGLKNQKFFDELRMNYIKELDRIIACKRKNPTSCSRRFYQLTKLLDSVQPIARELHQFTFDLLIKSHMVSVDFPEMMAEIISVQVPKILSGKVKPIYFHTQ

human AR [2] = target: T1, human AR; assay: Co-transfection assay, AR antagonist activity (CV-1 cells, in presence of DHT); format: cell-based; conditions: for AR Antagonist CV-1 Cells Efficacy (%): percent maximal inhibition, DHT at its EC50; for IC50: read-out: AR Antagonist CV-1 Cells Potency
human AR [3] = target: T1, human AR; assay: AR whole cell competitive binding assay (COS-1 cells, 3H-DHT); conditions: 1 nM 3H-DHT, Cheng-Prusoff
Procedure: AR Binding: For the whole cell binding assay, COS-1 cells in 96-well microtiter plates containing DMEM-10% FBS were transfected as described above with the following plasmid DNA: pRShAR (2 ng/well), pRS-β-Gal (50 ng/well) and pGEM (48 ngcwell). Six hours after transfection, media was removed, the cells were washed with PBS and fresh media was added. The next day, the media was changed to DMEM-serum free to remove any endogenous ligand that might be complexed with the receptor in the cells.
Three replicates were used for each sample. […] The remaining media was removed, the cells were washed three times with PBS to remove unbound ligand, and cells were lysed with a Triton X-100-based buffer.
For the saturation analyses, the difference between the total binding and the nonspecific binding, normalized by the β-Gal rate, was defined as specific binding. […] The Ki values were determined by application of the Cheng-Prusoff equation to the IC50 values, where:
After correcting for non-specific binding, IC50 values were determined. […] The IC50 value was determined graphically from a log-logit plot of the data. The Ki values were determined by application of the Cheng-Prusoff equivuation to the IC50 values, the labeled ligand concentration and the Kd of the labeled ligand.

| Structure (SMILES) | EC50 (human AR [1]) [nM] | AR Agonist CV-1 Cells Efficacy (%) (human AR [1]) | AR Antagonist CV-1 Cells Efficacy (%) (human AR [2]) | IC50 (human AR [2]) [nM] | Ki (human AR [3]) [nM] |
| --- | --- | --- | --- | --- | --- |
| CCCN(c1ccc2[nH]c(=O)cc(C(F)(F)F)c2c1)C(C)CC (racemic) [Compound 255, (±)-6-(N-Propyl-N-1-methylpropyl)amino-4-trifluoromethyl-2(1H)-quinolinone] | 25 | 135 | na (na = not active (i.e. efficacy of <20 and potency of >10,000)) | > 10000 | 67 |
| O=c1cc(C(F)(F)F)c2cc(N3CCCC3Cc3ccccc3)ccc2[nH]1 (racemic) [Compound 341, (±)-6-(2-Benzyl-1-pyrrolidino)-4-trifluoromethyl-2(1H)-quinolinone] | > 10000 | – | 85% | 15 | 277 |
| O=c1cc(C(F)(F)F)c2cc(N3CCCC[C@H]3CCl)ccc2[nH]1 [Compound 432, (+)S-6-(2-Chloromethyl-1-piperidino)-4-trifluoromethyl-2(1H)-quinolinone] | 8 | 96 | na (na = not active (i.e. efficacy of <20 and potency of >10,000)) | > 10000 | 32 |
| C=CCN(CC1CC1)c1ccc2[nH]c(=O)cc(C(F)(F)F)c2c1 [Compound 285, 6-(N-Allyl-N-cyclopropylmethyl)amino-4-trifluoromethyl-2(1H)-quinolinone] | 1 | 111 | na (na = not active (i.e. efficacy of <20 and potency of >10,000)) | > 10000 | 6.2 |
| Cn1c(=O)cc(C(F)(F)F)c2ccc(NCC(F)(F)F)cc21 [Compound 532, 1-Methyl-7-(2,2,2-trifluoromethyl)amino-4-trifluoromethyl-2(1H)-quinolinone] | > 10000 | – | 85% | 73 | 159 |
| O=c1cc(C(F)(F)F)c2cc(-c3cccc(F)c3)ccc2[nH]1 [Compound 741, 4-Trifluoromethyl-6-(3-fluorophenyl)-2(1H)-quinolinone] | > 10000 | – | 92% | 27 | 322 |
| COc1cccc(-c2ccc3[nH]c(=O)cc(C)c3c2)c1 [Compound 758, 4-Methyl-6-(3-methoxyphenyl)-2(1H)-quinolinone] | > 10000 | – | 94% | 87 | 3.6 |
| O=c1cc(C(F)(F)F)c2cc(N3CCCCC3CO)ccc2[nH]1 (racemic) [Compound 331, (±)-6-(2-Hydroxymethyl-1-piperidino)-4-trifluoromethyl-2(1H)-quinolinone] | 21 | 44 | 42% | 5.7 | > 1000 |
| CSCC1CCCCN1c1ccc2[nH]c(=O)cc(C(F)(F)F)c2c1 (racemic) [Compound 426, (±)-6-(2-Thiomethoxymethyl-1-piperidino)-4-trifluoromethyl-2(1H)-quinolinone] | 45 | 93 | na (na = not active (i.e. efficacy of <20 and potency of >10,000)) | > 10000 | 28 |
| C[C@@H]1CC[C@H](C)N1c1ccc2[nH]c(=O)cc(C(F)(F)F)c2c1 [Compound 328, 6-(2,5-cis-Dimethyl-1-pyrrolidino)-4-trifluoromethyl-2(1H)-quinolinone] | 1.7 | 93 | na (na = not active (i.e. efficacy of <20 and potency of >10,000)) | > 10000 | 48 |
| CC1OC(=O)Nc2ccc(C3=CCCCC3)cc21 (racemic) [Compound 698, (±)-6-(1-Cyclohexenyl)-1,4-dihydro-4-methyl-1,3-benzo[d]oxazin-2-one] | > 10000 | – | 84% | 17 | 32 |
| CS(=O)(=O)N(CC(F)(F)F)c1ccc2[nH]c(=O)cc(C(F)(F)F)c2c1 [Compound 295, 6-(N-2,2,2-Trifluoroethyl-N-methylsufonyl)amino-4-trifluoromethyl-2(1H)-quinolinone] | 50 | 30 | 49% | 3.6 | 86 |
| Nc1cc2[nH]c(=O)cc(C(F)(F)F)c2cc1OCC(F)(F)F [Compound 571, 7-Amino-6-(2,2,2-trifluoroethoxy)-4-trifluoromethyl-2(1H)-quinolinone] | > 10000 | – | 69% | 14 | 71 |
| O=c1cc(C(F)(F)F)c2cc(N(Cc3ccccc3)Cc3ccccc3)ccc2[nH]1 [Compound 272, 6-(bis-N,N-Benzyl)amino-4-trifluoromethyl-2(1H)-quinolinone] | > 10000 | – | 67% | 7 | > 1000 |
| CC(C)CN(CC(C)C)c1ccc2[nH]c(=O)cc(C(F)(F)F)c2c1 [Compound 221, 6-Diisobutylamino-4-trifluoromethyl-2(1H)-quinolinone] | 23 | 114 | na (na = not active (i.e. efficacy of <20 and potency of >10,000)) | > 10000 | 147 |
| COC[C@H]1CCCN1c1ccc2[nH]c(=O)cc(C(F)(F)F)c2c1 [Compound 423, (R)-6-(2-Methoxymethyl-1-pyrrolidino)-4-trifluoromethyl-2(1H)-quinolinone] | 86 | 57 | na (na = not active (i.e. efficacy of <20 and potency of >10,000)) | > 10000 | 22 |
| CCCCC1(O)C=C(c2ccc3c(c2)C(C)(C)OC(=O)N3)CCC1 (racemic) [Compound 694, (±)-6-(3-Butyl-3-hydroxy-1-)cyclohexenyl-1,4-dihydro-4,4-dimethyl-1,3-benzo[d]oxazin-2-one] | 935 | 25 | 90% | 64 | > 1000 |
| O=c1cc(C(F)(F)F)c2cc(N(CC(F)(F)F)CC(F)(F)F)ccc2o1 [Compound 474, 6-(bis-N,N-2,2,2-Trifluoroethyl)amino-4-trifluoromethylcoumarin] | 0.6 | 73 | na (na = not active (i.e. efficacy of <20 and potency of >10,000)) | > 10000 | 1.8 |
| O=c1cc(C(F)(F)F)c2cc(N(CC(F)(F)Cl)CC(F)(F)Cl)ccc2[nH]1 [Compound 225, 6-(bis-2-Chloro-2,2-difluoroethyl)amino-4-trifluoromethyl-2(1H)-quinolinone] | 0.4 | 90 | na (na = not active (i.e. efficacy of <20 and potency of >10,000)) | > 10000 | 0.9 |
| Cc1cccc(-c2ccc3[nH]c(=O)cc(C(F)(F)F)c3c2)c1 [Compound 738, 4-Trifluoromethyl-6-(3-methylphenyl)-2(1H)-quinolinone] | > 10000 | – | 91% | 27 | > 1000 |
| CC(C)c1ccc2c(c1)CN(C)C(=O)N2 [Compound 721, 3,4-Dihydro-6-isopropyl-3-methyl-2(1H)-quinazolinone] | > 10000 | – | 85% | 32 | > 1000 |
| O=c1cc(C(F)(F)F)c2cc(C3=CCCCC3)ccc2[nH]1 [Compound 630, 6-Cyclohexenyl-4-trifluoromethyl-2(1H)-quinolinone] | 221 | 30 | 67% | 13 | 109 |
| O=c1cc(C(F)(F)F)c2cc(C(O)(c3ccccc3)c3ccccc3)ccc2[nH]1 [Compound 659, 6-(1-Hydroxy-1,1-diphenyl)methyl-4-trifluoromethyl-2(1H)-quinolinone] | > 10000 | – | 70% | 44 | 40 |
| O=c1cc(C(F)(F)F)c2cc(N3CCCC[C@@H]3[C@@H](O)C(F)(F)F)ccc2[nH]1 [Compound 457, (+)-6-(2R-(1R-Hydroxy-2,2,2-trifluoroethyl)-1-piperidino)-4-trifluoromethyl-2(1H)-quinolinone] | 3 | 85 | na (na = not active (i.e. efficacy of <20 and potency of >10,000)) | > 10000 | 3.2 |
